PubChem BioAssay AID248 (DTP/NCI, 2004)
Toxic doses and inconclusive results are not listed. Rule as the data show it: active = T/C of 150% or more; inactive = T/C below 125%.

System: L1210 leukemia ip in BDF1 mice, survival T/C
Assay: NCI In Vivo Anticancer Drug Screen. Data for tumor model L1210 Leukemia (intraperitoneal) in B6D2F1 (BDF1) mice
Conditions: endpoint: mean survival time, higher = longer survival
Procedure, shortened: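 Transplantable tumor model; survival measured in treated vs vehicle control mice. Value = treated/control.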

[1] = dose: 100.0 mg/kg/injection, schedule: Q01DX009 (ip), vehicle: saline with Tween-80
[2] = dose: 200.0 mg/kg/injection, schedule: Q01DX009 (ip), vehicle: saline with Tween-80
[3] = dose: 400.0 mg/kg/injection, schedule: Q01DX009 (ip), vehicle: saline with Tween-80
[4] = dose: 100.0 mg/kg/injection, schedule: Q04DX002 (ip), vehicle: Klucel (hydroxypropylcellulose) (HPC)
[5] = dose: 200.0 mg/kg/injection, schedule: Q04DX002 (ip), vehicle: Klucel (hydroxypropylcellulose) (HPC)
[6] = dose: 100.0 mg/kg/injection, schedule: Q01DX001 (ip), vehicle: saline
[7] = dose: 100.0 mg/kg/injection, schedule: Q01DX009 (ip), vehicle: Klucel (hydroxypropylcellulose) (HPC)
[8] = dose: 200.0 mg/kg/injection, schedule: Q01DX009 (ip), vehicle: Klucel (hydroxypropylcellulose) (HPC)
[9] = dose: 400.0 mg/kg/injection, schedule: Q01DX009 (ip), vehicle: Klucel (hydroxypropylcellulose) (HPC)
[10] = dose: 100.0 mg/kg/injection, schedule: Q04DX003 (ip), vehicle: saline with Tween-80
[11] = dose: 200.0 mg/kg/injection, schedule: Q04DX003 (ip), vehicle: saline with Tween-80
[12] = dose: 100.0 mg/kg/injection, schedule: Q01DX001 (ip), vehicle: carboxymethylcellulose (CMC)
[13] = dose: 200.0 mg/kg/injection, schedule: Q01DX001 (ip), vehicle: carboxymethylcellulose (CMC)
[14] = dose: 400.0 mg/kg/injection, schedule: Q01DX001 (ip), vehicle: carboxymethylcellulose (CMC)
[15] = dose: 100.0 mg/kg/injection, schedule: Q01DX001 (ip), vehicle: Klucel (hydroxypropylcellulose) (HPC)
[16] = dose: 100.0 mg/kg/injection, schedule: Q04DX003 (ip), vehicle: Klucel (hydroxypropylcellulose) (HPC)
[17] = dose: 200.0 mg/kg/injection, schedule: Q01DX001 (ip), vehicle: Klucel (hydroxypropylcellulose) (HPC)
[18] = dose: 200.0 mg/kg/injection, schedule: Q04DX003 (ip), vehicle: Klucel (hydroxypropylcellulose) (HPC)
[19] = dose: 400.0 mg/kg/injection, schedule: Q01DX001 (ip), vehicle: Klucel (hydroxypropylcellulose) (HPC)
[20] = dose: 400.0 mg/kg/injection, schedule: Q04DX003 (ip), vehicle: Klucel (hydroxypropylcellulose) (HPC)
[21] = dose: 50.0 mg/kg/injection, schedule: Q01DX009 (ip), vehicle: Klucel (hydroxypropylcellulose) (HPC)
[22] = dose: 100.0 mg/kg/injection, schedule: Q04DX003 (ip), vehicle: saline
[23] = dose: 200.0 mg/kg/injection, schedule: Q04DX003 (ip), vehicle: saline

Measured: T/C

Fc1cc(F)c(F)c(Oc2c(F)c(F)c(-c3c(F)c(F)c(F)c(F)c3F)c(F)c2F)c1F
inactive: [1] 104 % of control | [2] 90 % of control | [3] 101 % of control

N#Cc1ccc(Cl)cc1
inactive: [4] 100 % of control | [5] 102 % of control

CN(N=O)C(=O)NCCc1ccccc1
inactive: dose: 6.25 mg/kg/injection, schedule: Q01DX Z (ip), vehicle: carboxymethylcellulose (CMC) 101 % of control | dose: 12.5 mg/kg/injection, schedule: Q01DX Z (ip), vehicle: carboxymethylcellulose (CMC) 112 % of control | dose: 25.0 mg/kg/injection, schedule: Q01DX Z (ip), vehicle: carboxymethylcellulose (CMC) 93 % of control | dose: 50.0 mg/kg/injection, schedule: Q01DX Z (ip), vehicle: carboxymethylcellulose (CMC) 98 % of control | dose: 100.0 mg/kg/injection, schedule: Q01DX Z (ip), vehicle: carboxymethylcellulose (CMC) 109 % of control | dose: 200.0 mg/kg/injection, schedule: Q01DX Z (ip), vehicle: carboxymethylcellulose (CMC) 98 % of control | dose: 400.0 mg/kg/injection, schedule: Q01DX Z (ip), vehicle: carboxymethylcellulose (CMC) 108 % of control

O=[N+]([O-])c1cccc(OCCCOc2cccc([N+](=O)[O-])c2)c1
inactive: [6] 103 % of control | dose: 200.0 mg/kg/injection, schedule: Q01DX001 (ip), vehicle: saline 102 % of control | dose: 400.0 mg/kg/injection, schedule: Q01DX001 (ip), vehicle: saline 100 % of control

N=C(Oc1c(Cl)c(Cl)c(Cl)c(Cl)c1Cl)Oc1c(Cl)c(Cl)c(Cl)c(Cl)c1Cl
inactive: [7] 100 % of control | [8] 111 % of control | [9] 102 % of control

CCCSc1ccc2c3c(cccc13)C(=O)OC2=O
inactive: [7] 101 % of control | [8] 98 % of control

O=C1OC(=O)C2(Br)C3C=CC(C3)C12Br (stereo not given)
inactive: [10] 98 % of control | [11] 96 % of control | dose: 400.0 mg/kg/injection, schedule: Q04DX003 (ip), vehicle: saline with Tween-80 91 % of control

BrC1CC2CCCCC2CC1Br (stereo not given)
inactive: [12] 98 % of control | [13] 101 % of control | [14] 101 % of control

CS(=O)(=O)Oc1cccc(C2CS(=O)(=O)c3ccccc3N2)c1 (stereo not given)
inactive: [15] 101 % of control | [7] 104 % of control | [16] 97 % of control | [17] 106 % of control | [8] 101 % of control | [18] 97 % of control | [19] 103 % of control | [9] 101 % of control | [20] 94 % of control

O=c1[nH]cc(Br)c2sccc12
inactive: [10] 100 % of control | [11] 105 % of control

Cc1ccc(SCC#CCOc2ccc(Cl)cc2)cc1
inactive: dose: 75.0 mg/kg/injection, schedule: Q01DX001 (ip), vehicle: saline 93 % of control | dose: 75.0 mg/kg/injection, schedule: Q01DX009 (ip), vehicle: saline 99 % of control | dose: 150.0 mg/kg/injection, schedule: Q01DX001 (ip), vehicle: saline 95 % of control | dose: 150.0 mg/kg/injection, schedule: Q01DX009 (ip), vehicle: saline 99 % of control | dose: 300.0 mg/kg/injection, schedule: Q01DX001 (ip), vehicle: saline 93 % of control | dose: 300.0 mg/kg/injection, schedule: Q01DX009 (ip), vehicle: saline 96 % of control

O=C(O)c1cccc(NC(C(=O)c2ccccc2)c2ccccc2)c1 (stereo not given)
inactive: dose: 50.0 mg/kg/injection, schedule: Q01DX001 (ip), vehicle: Klucel (hydroxypropylcellulose) (HPC) 102 % of control | [15] 102 % of control | [17] 102 % of control

c1ccc2n[se]nc2c1
inactive: dose: 12.5 mg/kg/injection, schedule: Q04DX003 (ip), vehicle: saline 86 % of control | dose: 25.0 mg/kg/injection, schedule: Q04DX003 (ip), vehicle: saline 103 % of control

CCSCC1OC(n2cnc3c(N)nc(Cl)nc32)C(O)C1O (stereo not given)
inactive: dose: 12.5 mg/kg/injection, schedule: Q01DX001 (ip), vehicle: saline with Tween-80 100 % of control | dose: 25.0 mg/kg/injection, schedule: Q01DX001 (ip), vehicle: saline with Tween-80 100 % of control | dose: 50.0 mg/kg/injection, schedule: Q01DX001 (ip), vehicle: saline with Tween-80 102 % of control

O=[N+]([O-])c1ccc(Oc2ccc[n+]([O-])c2)c([N+](=O)[O-])c1
inactive: [21] 102 % of control | [7] 102 % of control | [10] 96 % of control

CCOC(=O)C1(C(=O)OCC)CC(C)C(=O)N1c1ccccc1OC (stereo not given)
inactive: [4] 100 % of control | [5] 89 % of control | dose: 400.0 mg/kg/injection, schedule: Q04DX002 (ip), vehicle: Klucel (hydroxypropylcellulose) (HPC) 100 % of control

C=C(Br)CNC(N)=S
inactive: [21] 96 % of control | [7] 100 % of control | [16] 94 % of control | [8] 102 % of control | [18] 95 % of control

CCN(CC)C(=S)SCC(=O)O
inactive: dose: 100.0 mg/kg/injection, schedule: Q04DX003 (ip), vehicle: other 101 % of control | dose: 200.0 mg/kg/injection, schedule: Q04DX003 (ip), vehicle: other 98 % of control | dose: 400.0 mg/kg/injection, schedule: Q04DX003 (ip), vehicle: other 98 % of control

CC[N+](C)(C)CCOC(=O)C1C2CC3OC(=O)C1C3C2 (stereo not given)
inactive: [22] 97 % of control | [23] 101 % of control

Cc1cccnc1N
inactive: dose: 100.0 mg/kg/injection, schedule: Q04DX002 (ip), vehicle: saline with Tween-80 104 % of control | dose: 200.0 mg/kg/injection, schedule: Q04DX002 (ip), vehicle: saline with Tween-80 107 % of control

COCCOc1nccc(N)n1
inactive: dose: 25.0 mg/kg/injection, schedule: Q01DX001 (ip), vehicle: saline 97 % of control | dose: 50.0 mg/kg/injection, schedule: Q01DX001 (ip), vehicle: saline 97 % of control | [6] 100 % of control

Cc1ccc(NC(=O)CI)cc1
inactive: dose: 50.0 mg/kg/injection, schedule: Q04DX002 (ip), vehicle: other 100 % of control

COc1cc(N(CCCl)CCCl)c(OC)cc1C=Nc1cccc(C(F)(F)F)c1
inactive: [12] 120 % of control | [13] 115 % of control | [14] 98 % of control

CCOCCCN
inactive: dose: 50.0 mg/kg/injection, schedule: Q01DX009 (ip), vehicle: saline 103 % of control | dose: 100.0 mg/kg/injection, schedule: Q01DX009 (ip), vehicle: saline 95 % of control | [22] 100 % of control | [23] 106 % of control

Cc1ccc2c(c1)C(c1ccccc1)=C(NC1CCCCC1)C2=O
inactive: [15] 87 % of control | [17] 91 % of control | [19] 92 % of control

CCCCOC(=O)C(C)OC(=O)Nc1cccc(Cl)c1 (stereo not given)
inactive: [1] 93 % of control | [2] 95 % of control | [3] 90 % of control

ClCCN(CCN(CCCl)c1ccccc1)c1ccccc1
inactive: [7] 113 % of control | [8] 108 % of control | [9] 115 % of control

COc1ccc(C(=O)c2ccccc2)c(O)c1
inactive: [16] 101 % of control | [18] 97 % of control | [20] 90 % of control

Cc1ccc(NC2OC(CO)C(O)C(O)C2O)cc1 (stereo not given)
inactive: dose: 75.0 mg/kg/injection, schedule: Q01DX001 (ip), vehicle: steriod suspending solution 99 % of control | dose: 150.0 mg/kg/injection, schedule: Q01DX001 (ip), vehicle: steriod suspending solution 94 % of control | dose: 300.0 mg/kg/injection, schedule: Q01DX001 (ip), vehicle: steriod suspending solution 94 % of control
